Consider four molecules from patent publication US8304529B2, “Dinucleotide MRNA cap analogs” (Life Technologies Corporation, priority 2006, dated 2012).

One assay deals with HeLa cells. Description: Luciferase protein expression after transfection of capped luciferase RNA into HeLa cells. Conditions: for protein expression compared with mCAP: capped luciferase RNAs with poly(A) tail, different time points after transfection, higher than mCAP. The class given is cell-based. On the procedure: Structures were confirmed by ^1H NMR and ^31P NMR. Transcripts produced with T7 RNA polymerases using “anti-reverse” cap analogs (ARCAs) were of the predicted length and indistinguishable in size and homogeneity from those produced with m^7GpppG. Transfection assays were performed by using standard cap analog-capped and ARCA-capped luciferase in in vitro transcribed RNA with HeLa cells.

Assay [1] relates to phage RNA polymerase such as T7, T3 or SP6. The conditions noted are these: cited from earlier work.

Regarding `CO[C@H]1[C@@H](O)[C@H](n2c[n+](C)c3c(=O)[nH]c(N)nc32)O[C@@H]1COP(=O)(O)OP(=O)(O)OP(=O)(O)OC[C@H]1O[C@@H](n2cnc3c(=O)[nH]c(N)nc32)[C@H](O)[C@@H]1O` [ARCA, m2^7,3′OG[5′]ppp[5′]G], in the assay with HeLa cells, the “protein expression compared with mCAP” value worked out at 3 fold. For `C[n+]1cn([C@@H]2O[C@H](COP(=O)(O)OP(=O)(O)OP(=O)(O)OC[C@H]3O[C@@H](n4c[n+](C)c5c(=O)[nH]c(N)nc54)[C@H](O)[C@@H]3O)[C@@H](O)[C@H]2O)c2nc(N)[nH]c(=O)c21` [double methylated cap, m^7 (5′)Gppp(5′)m^7G], the “protein expression compared with mCAP” value in the assay with HeLa cells is “one fold higher”.

`Cn1c[n+]([C@@H]2O[C@H](COP(=O)(O)OP(=O)(O)OP(=O)(O)OC[C@H]3O[C@@H](n4cnc5c(=O)[nH]c(N)nc54)[C@H](O)[C@@H]3O)[C@@H](O)[C@H]2O)c2nc(N)[nH]c(=O)c21` [mCAP, m^7G(5′)ppp(5′)G]: in assay [1] (NTPs and cap RNA present in comparable concentrations), the “attachment of cap to RNA in the reverse orientation” value is reported as “around 50%”. For the same molecule, the “capped RNA in transcription product” value in assay [1] (m7GpppG to GTP 4:1, mMESSAGE mMACHINE kit, rest 20% uncapped) is recorded as 80%.

As to `COC1C(COP(=O)([O-])OP(=O)(O)OP(=O)([O-])OCC2OC(n3c[n+](C)c4c(=O)[nH]c(N)nc43)C(O)C2O)OC(n2c[n+](C)c3c(=O)[nH]c(N)nc32)C1O` (stereo not drawn) [triple methylated cap, m2^7,3′OG[5′]ppp[5′]m^7G], in the assay on HeLa cells, the “protein expression compared with mCAP” value is listed as 4 fold. Moreover, the “translation of capped transcripts in transfected cells” value in the assay with HeLa cells (compared with mCAP, double methylated and ARCA capped luciferase RNAs) is on record as “more highly translated”.
